The text below walks through data of PubChem BioAssay AID1959 (Broad Institute, 2009).

The source made the active and inactive calls.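 The calls were made as follows: active = growth-inhibition EC50 no more than tenfold above the top tested dose; inconclusive = flat fit between 30% and 70% inhibition, or unreliable fit; inactive = EC50 more than tenfold above the top tested dose.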

This assay deals with E. coli NEB5alpha growth, BacTiter-Glo luminescence, 4 h. The assay can be described thus: Escherichia coli growth inhibition, dose response, counter-screen for MEX-5/POS-1 RNA-binding inhibitor project, luminescence, NEB5alpha (AID 1959).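 Also: pUC19-transformed ampicillin-resistant cells grown in LB with ampicillin.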
One may read the EC50 as the concentration needed to bring the measured effect to its halfway point. Consider `N=c1c(S(=O)(=O)c2ccccc2)cc2c(=O)n3ccccc3nc2n1Cc1cccnc1`, for which the EC50 was > 11 µM (inactive).

For `Cc1cc(C(=O)O)ccc1-n1c(C)ccc1C`, the EC50 is > 11 µM (inactive). In the case of `O=C1CSC(=S)N1/N=C/c1ccc(Cl)c([N+](=O)[O-])c1`, the EC50 was > 11 µM (inactive). In the case of `CCn1cc(C=C2C(=O)N(C)C(=O)N(C)C2=O)c2ccccc21`, the EC50 was > 11 µM (inactive). Under `Cc1cc(/C=N/Nc2ccc([N+](=O)[O-])cn2)c(C)n1-c1ccc(C(=O)O)cc1` stands > 11 µM (inactive). Consider `CC1=CC(=C2N=C(c3ccccc3)OC2=O)C=C(C)O1`, for which the EC50 is > 11 µM (inactive).

Take `N#Cc1c(C#N)c(-c2ccccc2)n(-c2ccc(C(=O)O)cc2)c1N`: the EC50 is > 11 µM (inactive). Take `CN1C(=O)NC(=O)/C(=C\c2ccc([N+](=O)[O-])o2)C1=O`: the EC50 is > 11 µM (inactive). To `ClCc1nc2ccccc2n1Cc1ccccc1` belongs > 11 µM (inactive).

`COc1cccc(/C=N/NC(=O)c2ccc(=O)[nH]n2)c1O`: the EC50 is > 11 µM (inactive). Under `CC(/C=C1\N=C(SCc2ccccc2Cl)SC1=O)=C\c1ccccc1` stands > 11 µM (inactive); under `COc1cc(NC(=O)CSc2nc3ncnc(N)c3[nH]2)c(C(=O)O)cc1OC`, > 11 µM (inactive). Under `CC(=NCc1ccc2c(c1)OCO2)c1c(O)n(-c2ccccc2)c(=O)[nH]c1=O` stands > 11 µM (inactive); under `CSc1nc(=S)c2[nH]c(=S)[nH]c2[nH]1`, > 11 µM (inactive).

With `CC1=NN(C(N)=S)C(=O)C1N=Nc1c(Cl)cc([N+](=O)[O-])cc1Cl` (stereo not given), the EC50 is > 11 µM (inactive). Under `O=C(O)c1ccc(-n2cccc2)cc1O` stands > 11 µM (inactive); under `Cn1c(=O)cc2c3c(c(N4CCCCC4)ccc31)C(=O)c1ccccc1-2`, > 11 µM (inactive); under `COc1ccc(C(=O)/C=C/Nc2ccc([N+](=O)[O-])cc2C)cc1OC`, > 11 µM (inactive). To `O=c1oc2c3c4c(cc2s1)CCCN4CCC3` belongs > 11 µM (inactive); to `CCOc1ccccc1NC(=O)Nc1ccc(OC)nc1`, > 11 µM (inactive); to `O=C1N=C(N2CCOCC2)S/C1=C\c1ccc(-c2ccccc2Cl)o1`, > 11 µM (inactive). Under `CS(=O)(=O)Nc1nc2n(n1)C(c1ccccc1)C=C(c1ccc(Br)cc1)N2` (stereo not given) stands > 11 µM (inactive); under `CCOc1cc(N2CCOCC2)c(OCC)cc1NC(C)C(=O)N1CCN(CC)CC1` (stereo not given), > 11 µM (inactive). As to `COc1cc2[nH]c(C(=O)NN)c(N)c2cc1OC`, the EC50 was > 11 µM (inactive). Consider `COc1cc(C(CC(=O)N2CCCC2)c2c(OC)cc(OC)c3ccc(=O)oc23)cc(OC)c1OC` (stereo not given), for which the EC50 is > 11 µM (inactive). Take `COCCCNC(=O)C(C#N)c1nc2ccccc2nc1N1CCCC1` (stereo not given): the EC50 is > 11 µM (inactive).

As for `Cc1cc(/C=C2\SC(=O)N(C)C2=O)c(C)n1-c1cccc(C(=O)O)c1`, the EC50 was > 11 µM (inactive). With `COc1cc(C2C3CN(C)CC=C3C(C#N)=C(N)C2(C#N)C#N)ccc1OC(C)C` (stereo not given), the EC50 is > 11 µM (inactive). To `Oc1[nH]c2ccccc2c1N=Nc1ccccc1` belongs > 11 µM (inactive).

As for `COc1cccc(C(=O)NCC(=O)NNc2ncnc(N)c2[N+](=O)[O-])c1`, the EC50 was > 11 µM (inactive). Under `CC1CCCN(c2nc3ccccc3nc2C(C#N)S(=O)(=O)c2cccs2)C1` (stereo not given) stands > 11 µM (inactive). Under `NS(=O)(=O)c1ccc(N=Nc2c[nH]c(=O)c(O)c2)cc1` stands > 11 µM (inactive); under `Cc1ccc(O)c(-c2cc(C(=O)Nc3ccc(S(=O)(=O)Nc4nccc(C)n4)cc3)[nH]n2)c1`, > 11 µM (inactive). To `COC(=O)CCCC1=CC2=CC(=O)C(C)(OC(=O)CCc3ccccc3)C(=O)C2=CO1` (stereo not given) belongs > 11 µM (inactive); to `O=C(NCC1CCCO1)c1ccc(CS(=O)(=O)Cc2ccc(F)cc2)o1` (stereo not given), > 11 µM (inactive).
